Results as given in patent US20090298915A1, “TOPICAL DRUG DELIVERY” (priority 2006, published 2009).

What was measured:
[1] = system: S91 Cloudman murine melanoma cells; test: Pigmentation assay (melanin synthesis); format: cell-based; settings: 5 days culture, 10^−8 M and 10^−6 M
Protocol: (§1) S91 Cloudman murine melanoma cells were cultured for 5 days in the presence or absence of αMSH compounds. All experiments were carried out in triplicate wells on three separate occasions. Following culture, cells were washed twice with PBS and then dissociated with cell dissociation solution (Sigma, UK). An aliquot of cells were counted using a haemocytometer, and the remaining cells pelleted by centrifugation prior to lysis of the pellet with 200 μl of 1M NaOH. Melanin concentrations were determined against a standard synthetic melanin dose range using a spectrophometric plate reader (emission 450-492 nm).

[2] = Ex vivo skin penetration, Franz diffusion chamber, mouse skin; format: in vitro ADME; settings: fluorescein-labelled compounds, 10^−3 M, up to 3 hours
Excerpt: (§2) The penetration of the relevant compounds into mouse, pig and human skin was investigated using a Franz diffusion chamber system; this approach ensured a sealed system which prevented any leakage between the upper donor compartment and the lower receptor compartment. Circular full thickness skin samples (6 mm diameter) which had been cut with a punch biopsy blade were mounted into the diffusion chamber, with the stratum corneum facing upwards so that it was exposed to donor compartment, and with the receptor compartment filled with PBS. The compound under investigation was applied to the donor compartment so that it lay on the outer skin surface, and the chamber incubated at room temperature or at 37° C. for up to 3 hours. At the end of this incubation period, the remaining solution was removed from the upper compartment, and the skin washed three times with PBS. The skin was then bisected and half of it was snap frozen in liquid nitrogen for cryosectioning whereas the other half was fixed in 4% paraformaldehyde for 3 hours prior to paraffin blocking for cutting tissue sections. The skin sections were mounted on glass and visualised under fluorescent microscopy.
(§3) Penetration of αMSH into skin was examined using an ex-vivo mouse, pig and human skin model. […]

[3] = Ex vivo skin penetration, Franz diffusion chamber, pig skin; format: in vitro ADME; settings: fluorescein-labelled compounds, 10^−3 M, up to 3 hours
Excerpt: as §2, §3

[4] = Ex vivo skin penetration, Franz diffusion chamber, human skin; format: in vitro ADME; settings: fluorescein-labelled compounds, 10^−3 M, up to 3 hours
Excerpt: as §2, §3

B16F10 cells = test: Transport into B16F10 cells, fluorescence and confocal microscopy; format: cell-based, murine; settings: TyrPNA-PPL-fluo at 3×10^−5 M and at 10^−4 M
Protocol: Experiments to investigate the transport of each compound into cells in culture were performed at 3 hours and 24 hours. Cells were seeded (at 1×10^5 cells per well for 3 hours treatment or 5×10^4 cells per well for 24 hours treatment) on 1% (w/v) poly-L-lysine coated glass coverslips in 12 well plates and incubated overnight at 5% CO2 and 37° C.; poly-L-lysine coating of glass coverslips was employed to prevent the fluo-labelled PPL compounds adhering to the glass and causing background fluorescence. Cells were then washed with PBS, and incubated at 5% CO2 and 37° C. with the compound in the medium for 3 hours or 24 hours. The medium was subsequently removed and the cells washed twice with PBS, prior to fixation with 4% paraformaldehyde for 7 minutes, and then fixation was stopped with 50 mM ammonium chloride for 10 minutes. Cells were subsequently washed twice with PBS, and coverslips were mounted (with the cells facing downwards) onto a glass slide with vectashield, and the edges sealed with clear nail varnish to prevent drying. Fluorescence was detected by fluorescence microscopy and/or confocal microscopy. […]
Fluorescently-tagged compounds were used as noted above and intracellular fluorescence recorded as a measure of penetration.

[5] = system: B16F10 murine melanoma cells; test: Pigmentation assay in alphaMSH-stimulated B16F10 cells; format: cell-based; settings: B16F10, 48 hours, αMSH 10^−10 M, compound 10^−5 M
Protocol: as §1
B16F10 murine melanoma cells were cultured for 48 hours in the presence or absence of αMSH (10^−10 M) with or without TyrPNA or TyrASO and separately with or without TyrPNA-PPL or TyrASO-PPL. Pigmentation was assessed as described above.

Question: Which “melanin synthesis by melanoma cells, potency compared with αMSH” value [1] does the source give for Fluo-Ahx-SYSMEHFRWGKPV-NH2 [Fluo-MSH] here?
Answer: stimulated melanin synthesis by melanoma cells with similar potency to αMSH

Question: And the “penetration into mouse skin ex vivo” value [2]?
Answer: did not penetrate into skin (except on a single occasion in mouse skin)

Question: And the “penetration into pig skin ex vivo” value [3]?
Answer: did not penetrate into skin

Question: What about the “penetration into human skin ex vivo” value [4] of the same substance?
Answer: did not penetrate into skin

Question: What does the source list for “TyrPNA-fluo: fluorescein-labelled TyrPNA, FIG. 8 (GAACATTTTCTCCTT; all peptide nucleic acid (PNA); further chemistry not fully specified)”?
Answer: penetration into human skin ex vivo [4]: did not penetrate into skin; penetration into B16F10 cells (intracellular fluorescence) (B16F10 cells): did not penetrate into B16F10 cells

Question: With “TyrPNA: 15 mer antisense peptide nucleic acid (GAA CAT TTT CTC CTT; SEQ. ID no. 1) targeting murine tyrosinase, modified as in FIG. 7 (antisense GAACATTTTCTCCTT; all peptide nucleic acid (PNA); further chemistry not fully specified) [15 mer antisense peptide nucleic acid (GAA CAT TTT CTC CTT; ID no]” as the substance, how does the “darkening of the cell pellet induced by αMSH” value [5] read?
Answer: did not prevent the increased production of melanin
